Measurements from patent publication US8796256B2 (Janssen Pharmaceutica NV, priority 2010, dated 2014).
pEC50: −log10 of the molar value.

Molecular target: T1, ERR1 (also known as ERR-α or ERR-1) (Homo sapiens, UniProt P11474)
T1 sequence (P11474 193-421 limits assumed): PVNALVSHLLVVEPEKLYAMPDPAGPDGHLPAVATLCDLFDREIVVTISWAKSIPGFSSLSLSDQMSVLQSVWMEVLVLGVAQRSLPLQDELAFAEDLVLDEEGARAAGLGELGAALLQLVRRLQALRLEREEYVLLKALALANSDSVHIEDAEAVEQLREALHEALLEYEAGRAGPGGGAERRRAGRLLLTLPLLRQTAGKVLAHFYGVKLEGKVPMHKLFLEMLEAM
Assay: TR-FRET assay (disruption of co-activator peptide binding to ERR1 LBD)
Type: biochemical
Conditions: 6 nM 6His-ERR1LBD, 6 nM GST-SRC-2 peptide; average of 3 independent experiments
Procedure, shortened: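 His-tagged ERR1 ligand-binding domain and GST-labelled SRC-2 peptide, each 6 nM, equilibrated at 25° C for 4-18 h in Tris pH 8/Hepes/KCl/DTT/delipidated BSA buffer. Compound-induced loss of co-activator binding read as Eu cryptate→XL665 energy transfer; values from hyperbolic curve fits averaged over 3 independent runs.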

In order of falling pEC50:
1. O=C1S/C(=C\c2ccc3c(cnn3Cc3ccc(Cl)cc3C(F)(F)F)c2)C(=O)N1C1CCNCC1 [Compound 113, (5Z)-5-({1-[4-Chloro-2-(trifluoromethyl)benzyl]-1H-indazol-5-yl}methylidene)-3-piperidin-4-yl-1,3-thiazolidine-2,4-dione]  7.80
2. O=C1S/C(=C\c2ccc3c(cnn3Cc3ccc(Cl)cc3C(F)(F)F)c2)C(=O)N1C1CN2CCC1CC2 (stereo not drawn) [Compound 112, (5Z)-3-(1-Azabicyclo[2.2.2]oct-3-yl)-5-({1-[4-chloro-2-(trifluoromethyl)benzyl]-1H-indazol-5-yl}methylidene)-1,3-thiazolidine-2,4-dione]  7.66
3. CCN1CCC(N2C(=O)S/C(=C\c3ccc4c(cnn4Cc4ccc(Cl)cc4C(F)(F)F)c3)C2=O)CC1 [Compound 118, (5Z)-5-({1-[4-Chloro-2-(trifluoromethyl)benzyl]-1H-indazol-5-yl}methylidene)-3-(1-ethylpiperidin-4-yl)-1,3-thiazolidine-2,4-dione]  7.60
4. O=C1S/C(=C\c2ccc3c(cnn3Cc3ccc(Cl)cc3C(F)(F)F)c2)C(=O)N1C1CNC1 [Compound 102, (5Z)-3-Azetidin-3-yl-5-({1-[4-chloro-2-(trifluoromethyl)benzyl]-1H-indazol-5-yl}methylidene)-1,3-thiazolidine-2,4-dione]  7.43
5. CCN1CC[C@H](N2C(=O)S/C(=C\c3ccc4c(cnn4Cc4ccc(Cl)cc4C(F)(F)F)c3)C2=O)C1 [Compound 119, (5Z)-5-({1-[4-Chloro-2-(trifluoromethyl)benzyl]-1H-indazol-5-yl}methylidene)-3-[(3S)-1-ethylpyrrolidin-3-yl]-1,3-thiazolidine-2,4-dione]  7.40
6. N=C(N)NOCCN1C(=O)S/C(=C\c2ccc3c(cnn3Cc3ccc(C(F)(F)F)cc3C(F)(F)F)c2)C1=O [Compound 103, 1-{2-[(5Z)-5-({1-[2,4-Bis(trifluoromethyl)benzyl]-1H-indazol-5-yl}methylidene)-2,4-dioxo-1,3-thiazolidin-3-yl]ethoxy}guanidine]  7.37
7. COCCN1C(=O)S/C(=C\c2ccc3c(cnn3Cc3ccc(Cl)cc3C(F)(F)F)c2)C1=O [Compound 123, (5Z)-5-({1-[4-Chloro-2-(trifluoromethyl)benzyl]-1H-indazol-5-yl}methylidene)-3-(2-methoxyethyl)-1,3-thiazolidine-2,4-dione]  7.35
8. N[C@H]1C[C@H](CN2C(=O)S/C(=C\c3ccc4c(cnn4Cc4ccc(Cl)cc4C(F)(F)F)c3)C2=O)C1 [Compound 100, (5Z)-3-[(trans-3-Aminocyclobutyl)methyl]-5-({1-[4-chloro-2-(trifluoromethyl)benzyl]-1H-indazol-5-yl}methylidene)-1,3-thiazolidine-2,4-dione]  7.34
9. O=C(O)CCCN1C(=O)S/C(=C\c2ccc3c(cnn3Cc3ccc(Cl)cc3C(F)(F)F)c2)C1=O [Compound 97, 4-[(5Z)-5-({1-[4-Chloro-2-(trifluoromethyl)benzyl]-1H-indazol-5-yl}methylidene)-2,4-dioxo-1,3-thiazolidin-3-yl]butanoic acid]  7.33
10. O=C1S/C(=C\c2ccc3c(cnn3Cc3ccc(Cl)cc3C(F)(F)F)c2)C(=O)N1C1CCCNC1 (stereo not drawn) [Compound 124, (5Z)-5-({1-[4-Chloro-2-(trifluoromethyl)benzyl]-1H-indazol-5-yl}methylidene)-3-piperidin-3-yl-1,3-thiazolidine-2,4-dione]  7.29
11. O=C1S/C(=C\c2ccc3c(cnn3Cc3ccc(Cl)cc3C(F)(F)F)c2)C(=O)N1[C@H]1CCNC1 [Compound 114, (5Z)-5-({1-[4-Chloro-2-(trifluoromethyl)benzyl]-1H-indazol-5-yl}methylidene)-3-[(3S)-pyrrolidin-3-yl]-1,3-thiazolidine-2,4-dione]  7.26
12. O=C1S/C(=C\c2ccc3c(cnn3Cc3ccc(Cl)cc3C(F)(F)F)c2)C(=O)N1C[C@@H]1CCCNC1 [Compound 95, (5Z)-5-({1-[4-Chloro-2-(trifluoromethyl)benzyl]-1H-indazol-5-yl}methylidene)-3-[(3R)-piperidin-3-ylmethyl]-1,3-thiazolidine-2,4-dione]  7.24
13. O=C1S/C(=C\c2ccc3c(cnn3Cc3ccc(Cl)cc3C(F)(F)F)c2)C(=O)N1C[C@H]1CCCNC1 [Compound 96, (5Z)-5-({1-[4-Chloro-2-(trifluoromethyl)benzyl]-1H-indazol-5-yl}methylidene)-3-[(3S)-piperidin-3-ylmethyl]-1,3-thiazolidine-2,4-dione]  7.17
14. O=C1S/C(=C\c2ccc3c(cnn3Cc3ccc(Cl)cc3C(F)(F)F)c2)C(=O)N1CC1CNC1 [Compound 101, (5Z)-3-(Azetidin-3-ylmethyl)-5-({1-[4-chloro-2-(trifluoromethyl)benzyl]-1H-indazol-5-yl}methylidene)-1,3-thiazolidine-2,4-dione]  7.17
15. N[C@H]1CCC[C@H](CN2C(=O)S/C(=C\c3ccc4c(cnn4Cc4ccc(Cl)cc4C(F)(F)F)c3)C2=O)C1 [Compound 105, (5Z)-3-{[(1S,3S)-3-Aminocyclohexyl]methyl}-5-({1-[4-chloro-2-(trifluoromethyl)benzyl]-1H-indazol-5-yl}methylidene)-1,3-thiazolidine-2,4-dione]  7.17
16. CC(=O)N1CCN(CCN2C(=O)S/C(=C\c3ccc4c(cnn4Cc4ccc(Cl)cc4C(F)(F)F)c3)C2=O)CC1 [Compound 117, (5Z)-3-[2-(4-Acetylpiperazin-1-yl)ethyl]-5-({1-[4-chloro-2-(trifluoromethyl)benzyl]-1H-indazol-5-yl}methylidene)-1,3-thiazolidine-2,4-dione]  7.07
17. O=C1S/C(=C\c2ccc3c(cnn3Cc3ccc(Cl)cc3C(F)(F)F)c2)C(=O)N1CCc1ccncc1 [Compound 108, (5Z)-5-({1-[4-Chloro-2-(trifluoromethyl)benzyl]-1H-indazol-5-yl}methylidene)-3-(2-pyridin-4-ylethyl)-1,3-thiazolidine-2,4-dione]  6.99
18. O=C1S/C(=C\c2ccc3c(cnn3Cc3ccc(Cl)cc3C(F)(F)F)c2)C(=O)N1CCN1CCCNCC1 [Compound 104, (5Z)-5-({1-[4-Chloro-2-(trifluoromethyl)benzyl]-1H-indazol-5-yl}methylidene)-3-[2-(1,4-diazepan-1-yl)ethyl]-1,3-thiazolidine-2,4-dione]  6.95
19. O=C1S/C(=C\c2ccc3c(cnn3Cc3ccc(Cl)cc3C(F)(F)F)c2)C(=O)N1CCN1CC(O)C1 [Compound 115, (5Z)-5-({1-[4-Chloro-2-(trifluoromethyl)benzyl]-1H-indazol-5-yl}methylidene)-3-[2-(3-hydroxyazetidin-1-yl)ethyl]-1,3-thiazolidine-2,4-dione]  6.89
20. O=C1S/C(=C\c2ccc3c(cnn3Cc3ccc(Cl)cc3C(F)(F)F)c2)C(=O)N1CCc1cccnc1 [Compound 109, (5Z)-5-({1-[4-Chloro-2-(trifluoromethyl)benzyl]-1H-indazol-5-yl}methylidene)-3-(2-pyridin-3-ylethyl)-1,3-thiazolidine-2,4-dione]  6.82
21. O=C1S/C(=C\c2ccc3c(cnn3Cc3ccc(Cl)cc3C(F)(F)F)c2)C(=O)N1CCN1CCC(F)(F)C1 [Compound 116, (5Z)-5-({1-[4-Chloro-2-(trifluoromethyl)benzyl]-1H-indazol-5-yl}methylidene)-3-[2-(3,3-difluoropyrrolidin-1-yl)ethyl]-1,3-thiazolidine-2,4-dione]  6.74
22. O=C1S/C(=C\c2ccc3c(cnn3Cc3ccc(Cl)cc3C(F)(F)F)c2)C(=O)N1CCN1CCC1 [Compound 120, (5Z)-3-(2-Azetidin-1-ylethyl)-5-({1-[4-chloro-2-(trifluoromethyl)benzyl]-1H-indazol-5-yl}methylidene)-1,3-thiazolidine-2,4-dione]  6.66
23. N[C@@H](CN1C(=O)S/C(=C\c2ccc3c(cnn3Cc3ccc(Cl)cc3C(F)(F)F)c2)C1=O)C1CCCCC1 [Compound 107, (5Z)-3-[(2R)-2-Amino-2-cyclohexylethyl]-5-({1-[4-chloro-2-(trifluoromethyl)benzyl]-1H-indazol-5-yl}methylidene)-1,3-thiazolidine-2,4-dione]  6.58
24. O=C(O)CN1C(=O)S/C(=C\c2ccc3c(cnn3Cc3ccc(F)cc3C(F)(F)F)c2)C1=O [Compound 122, [(5Z)-5-({1-[4-Fluoro-2-(trifluoromethyl)benzyl]-1H-indazol-5-yl}methylidene)-2,4-dioxo-1,3-thiazolidin-3-yl]acetic acid]  6.50
25. NC[C@H]1CC[C@H](CN2C(=O)S/C(=C\c3ccc4c(cnn4Cc4ccc(Cl)cc4C(F)(F)F)c3)C2=O)CC1 [Compound 106, (5Z)-3-{[trans-4-(Aminomethyl)cyclohexyl]methyl}-5-({1-[4-chloro-2-(trifluoromethyl)benzyl]-1H-indazol-5-yl}methylidene)-1,3-thiazolidine-2,4-dione]  6.46
26. O=C1S/C(=C\c2ccc3c(cnn3Cc3ccc(Cl)cc3C(F)(F)F)c2)C(=O)N1CCNc1ccc([N+](=O)[O-])cn1 [Compound 110, (5Z)-5-({1-[4-Chloro-2-(trifluoromethyl)benzyl]-1H-indazol-5-yl}methylidene)-3-{2-[(5-nitropyridin-2-yl)amino]ethyl}-1,3-thiazolidine-2,4-dione]  6.36
27. O=C1S/C(=C\c2ccc3c(cnn3Cc3ccc(Cl)cc3C(F)(F)F)c2)C(=O)N1C[C@@H]1CSCCN1 [Compound 98, (5Z)-5-({1-[4-Chloro-2-(trifluoromethyl)benzyl]-1H-indazol-5-yl}methylidene)-3-[(3R)-thiomorpholin-3-ylmethyl]-1,3-thiazolidine-2,4-dione]  6.01
